Laboratory results: patent US7893078B2 (priority 2001, dated 2011)
Where “and” joins values, the source holds several entries; their conditions need not be identical. Equal entries are not always repeated. Entries after “also recorded” stand apart in the source; their conditions may differ.

Legend:
melanocytic nevi = assay: Cyclopamine cream on mole / melanocytic nevi; assay type: in vivo, human
Text: (§1) Trichoepithelioma is another tumor associated with genetic changes that cause increased hedgehog-smoothened signalling (Vorechovsky L. et al. (1997) Cancer Res. 57:4677-4681; Nilsson M. et al. (2000) Proc. Natl. Acad. Sci. USA 97:3438-3443).

[1] = system: basal cell carcinoma (BCC); conditions: human, in vivo
Method: (§2) The base cream used is made predominantly of heavy paraffin oil (10% w/w), vaseline (10% w/w), stearyl alcohol (8% w/w), polyoxysteareth-40 (3% w/w) and water (68% w/w), but another suitably formulated base cream is also possible. […] Night-time applications, avoided in this schedule because of possible loss of cream from the patient skin to linens during sleep, can be performed by suitable dermal patches.
Every third hour, about 20 μl cream was applied directly onto the lower half and the upper half was left untreated.
The tumor was then followed up without treatment for a study of the possible late effects. […] For example expression of the cell adhesion molecule CD44 is known to increase upon differentiation of the epidermal basal cells to the upper spinous layer cells (Kooy A J et al (1999) Human Pathology 30:1328-1335).

[2] = system: normal epidermis and hair follicles; assay: Normal skin exposed to the same schedule and doses of cyclopamine cream; histology, immunohistochemistry and follow-up
Text: as §2

trichoepithelioma = conditions: human, in vivo
Text: as §1

**Q.** `CC1=C2C[C@H]3[C@@H](CC=C4C[C@@H](O)CC[C@@]43C)[C@@H]2CC[C@]12O[C@@H]1C[C@H](C)CN[C@H]1[C@H]2C` [Cyclopamine] was tested. Which “Effect on melanocytic nevi” value (melanocytic nevi; 18 mM cyclopamine cream, another volunteer, data not shown) did it give?
**A.** rapid depigmentation and disappearance

**Q.** And the “Size and pigmentation of mole near treated tumor” value (melanocytic nevi; cyclopamine by diffusion from adjacent application area, 24th hour)?
**A.** decreased size and pigmentation

**Q.** And the “% of Cells Labelled with Ber-Ep4” value [1]?
**A.** 0 ± 0%

**Q.** What about the “% of Cells showing ≦ 2 Morphological Signs of Apoptosis on H & E Stained Tissue Sections” value [1] of the same compound?
**A.** 20 ± 8% and 18 ± 11%

**Q.** What about the “CD44 labelling of residual tumor cells (differentiation marker)” value [1] of the same compound?
**A.** markedly increased, strong labelling of essentially all residual tumor cells

**Q.** What about the “Clinical regression of BCC” value [1] of the same compound?
**A.** rapid clinical regressions; also recorded: rapid regression; also recorded: largely regressed

**Q.** What about the “Ki-67 antigen expression (proliferation marker)” value [1] of the same compound?
**A.** no longer expressed

**Q.** And the “Labelling of residual BCC cells with Ulex Europaeus lectin type 1 (differentiation marker)” value [1]?
**A.** heterogenous labelling

**Q.** What about the “Appearance of former skin sites of cyclopamine application at long-term follow-up” value ([2]; followed up more than 31 months) of the same compound?
**A.** healthy-looking normal skin and hair

**Q.** And the “Adverse effect on tissues and putative stem cells (histology, cytokeratin 15 and 19, Ber-Ep4)” value ([2]; normal skin exposed to same schedule and doses as the BCCs)?
**A.** no adverse effect

**Q.** And the “Clinical regression of trichoepithelioma” value (trichoepithelioma)?
**A.** rapid regression
